We go through 18 compounds from ChEMBL document CHEMBL1909046, “DrugMatrix in vitro pharmacology data”.

What is called IC50 is the concentration at which inhibition is half-maximal. Usually Ki stands for a dissociation constant, usually derived from enzyme kinetics or from competition with a known ligand.

Experiment [1] deals with T1, Muscarinic acetylcholine receptor M4 (Homo sapiens, UniProt P08173).
T1 sequence (P08173 whole entry): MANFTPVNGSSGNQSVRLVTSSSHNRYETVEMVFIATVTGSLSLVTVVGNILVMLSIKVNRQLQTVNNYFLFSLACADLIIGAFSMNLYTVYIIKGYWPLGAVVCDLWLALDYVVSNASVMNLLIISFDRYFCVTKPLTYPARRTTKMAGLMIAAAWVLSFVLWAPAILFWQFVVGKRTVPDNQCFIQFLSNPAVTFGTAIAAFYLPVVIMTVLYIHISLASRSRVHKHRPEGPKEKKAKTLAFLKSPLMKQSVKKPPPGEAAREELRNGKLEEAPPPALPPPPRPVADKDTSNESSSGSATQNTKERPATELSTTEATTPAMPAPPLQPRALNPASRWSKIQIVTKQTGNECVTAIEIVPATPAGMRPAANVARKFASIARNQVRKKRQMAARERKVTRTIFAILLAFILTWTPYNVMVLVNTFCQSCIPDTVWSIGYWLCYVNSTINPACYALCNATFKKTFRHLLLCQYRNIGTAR
In kind it is cell membranes, CHO-K1, Membrane.

For experiment [2], the target named is 5-hydroxytryptamine receptor 4 (Cavia porcellus, UniProt O70528). It is filed as cell membranes, Dunkin-Hartley, Striatum, Membrane.
The target of experiment [3] is T2, B2 bradykinin receptor (Homo sapiens, UniProt P30411).
T2 sequence (P30411 whole entry): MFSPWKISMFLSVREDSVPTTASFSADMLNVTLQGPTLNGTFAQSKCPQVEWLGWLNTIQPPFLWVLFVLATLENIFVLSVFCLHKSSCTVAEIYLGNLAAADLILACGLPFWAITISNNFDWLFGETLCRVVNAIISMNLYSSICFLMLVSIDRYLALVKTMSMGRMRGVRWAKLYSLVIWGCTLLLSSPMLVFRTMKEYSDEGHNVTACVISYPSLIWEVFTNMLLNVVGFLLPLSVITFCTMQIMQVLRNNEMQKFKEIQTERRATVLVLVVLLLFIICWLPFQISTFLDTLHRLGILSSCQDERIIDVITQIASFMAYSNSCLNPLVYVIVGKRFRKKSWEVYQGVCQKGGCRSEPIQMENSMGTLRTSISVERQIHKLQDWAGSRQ
In kind it is cell membranes, Membrane. As to conditions: chem-1.

The target of experiment [4] is Vasopressin V1a receptor (Homo sapiens, UniProt P37288). In kind it is cell membranes, Membrane. As to conditions: hek293.
The target of experiment [5] is T3, Cathepsin G (Homo sapiens, UniProt P08311).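 Note: inhibition of Cathepsin G enzyme activity, tested on an AMC-conjugated peptide substrate.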
T3 sequence (P08311 whole entry): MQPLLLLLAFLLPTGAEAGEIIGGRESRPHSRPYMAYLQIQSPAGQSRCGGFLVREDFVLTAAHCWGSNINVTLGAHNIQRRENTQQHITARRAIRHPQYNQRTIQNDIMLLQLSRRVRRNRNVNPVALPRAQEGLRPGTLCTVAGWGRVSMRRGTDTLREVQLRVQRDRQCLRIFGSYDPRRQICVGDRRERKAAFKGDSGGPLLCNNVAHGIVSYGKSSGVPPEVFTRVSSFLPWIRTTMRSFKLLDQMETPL
In kind it is tissue-based. As to conditions: neutrophil.

In experiment [6] the target is T4, Calcitonin receptor (Homo sapiens, UniProt P30988).
T4 sequence (P30988 whole entry): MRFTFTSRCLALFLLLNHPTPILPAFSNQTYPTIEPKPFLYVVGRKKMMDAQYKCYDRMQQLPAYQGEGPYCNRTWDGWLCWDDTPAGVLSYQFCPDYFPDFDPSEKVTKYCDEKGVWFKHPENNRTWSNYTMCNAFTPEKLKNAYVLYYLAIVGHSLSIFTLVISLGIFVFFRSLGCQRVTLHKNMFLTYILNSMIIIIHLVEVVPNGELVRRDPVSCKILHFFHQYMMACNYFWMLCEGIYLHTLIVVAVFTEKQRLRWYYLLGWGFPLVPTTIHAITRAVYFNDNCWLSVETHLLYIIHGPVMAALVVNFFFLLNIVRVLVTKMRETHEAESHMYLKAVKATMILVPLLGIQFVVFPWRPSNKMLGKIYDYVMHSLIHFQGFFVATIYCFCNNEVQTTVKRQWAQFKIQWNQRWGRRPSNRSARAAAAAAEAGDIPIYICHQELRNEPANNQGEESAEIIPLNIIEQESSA
In kind it is cell membranes, Membrane. As to conditions: t47d.

For experiment [7], the target named is T5, Alpha-1D adrenergic receptor (Homo sapiens, UniProt P25100).
T5 sequence (P25100 whole entry): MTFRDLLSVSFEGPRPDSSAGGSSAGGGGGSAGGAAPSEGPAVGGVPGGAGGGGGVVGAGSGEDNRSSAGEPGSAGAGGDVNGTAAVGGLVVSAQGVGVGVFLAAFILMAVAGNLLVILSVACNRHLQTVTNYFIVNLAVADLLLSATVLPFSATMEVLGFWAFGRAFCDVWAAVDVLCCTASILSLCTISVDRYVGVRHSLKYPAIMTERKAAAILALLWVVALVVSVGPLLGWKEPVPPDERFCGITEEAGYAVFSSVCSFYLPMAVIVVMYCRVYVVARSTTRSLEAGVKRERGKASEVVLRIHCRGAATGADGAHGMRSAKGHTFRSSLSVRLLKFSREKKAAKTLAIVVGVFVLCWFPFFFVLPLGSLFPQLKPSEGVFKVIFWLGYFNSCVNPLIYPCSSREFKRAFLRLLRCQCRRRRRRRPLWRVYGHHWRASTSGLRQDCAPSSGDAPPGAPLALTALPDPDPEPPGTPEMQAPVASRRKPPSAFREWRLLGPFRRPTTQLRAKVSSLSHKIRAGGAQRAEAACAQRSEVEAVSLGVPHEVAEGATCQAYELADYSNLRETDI
In kind it is cell membranes, HEK293, Membrane. As to conditions: for Ki: read-out: Ki.

Molecules are shown by their SMILES.
Note: in other assays of this panel Not Active means under 50% inhibition at 10 µM.

Sequence of Vasopressin V1a receptor (P37288 whole entry): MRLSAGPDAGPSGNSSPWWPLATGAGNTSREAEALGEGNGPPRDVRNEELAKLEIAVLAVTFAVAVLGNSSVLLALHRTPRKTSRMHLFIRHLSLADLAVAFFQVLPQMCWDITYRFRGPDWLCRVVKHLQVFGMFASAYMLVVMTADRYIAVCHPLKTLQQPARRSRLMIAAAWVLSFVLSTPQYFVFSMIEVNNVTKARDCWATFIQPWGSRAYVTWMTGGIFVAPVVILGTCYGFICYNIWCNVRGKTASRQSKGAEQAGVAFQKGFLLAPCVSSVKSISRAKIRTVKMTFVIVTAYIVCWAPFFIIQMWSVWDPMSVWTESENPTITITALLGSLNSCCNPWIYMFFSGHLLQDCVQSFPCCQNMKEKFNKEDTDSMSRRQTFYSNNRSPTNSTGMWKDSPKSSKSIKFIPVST
Sequence of 5-hydroxytryptamine receptor 4 (O70528 whole entry): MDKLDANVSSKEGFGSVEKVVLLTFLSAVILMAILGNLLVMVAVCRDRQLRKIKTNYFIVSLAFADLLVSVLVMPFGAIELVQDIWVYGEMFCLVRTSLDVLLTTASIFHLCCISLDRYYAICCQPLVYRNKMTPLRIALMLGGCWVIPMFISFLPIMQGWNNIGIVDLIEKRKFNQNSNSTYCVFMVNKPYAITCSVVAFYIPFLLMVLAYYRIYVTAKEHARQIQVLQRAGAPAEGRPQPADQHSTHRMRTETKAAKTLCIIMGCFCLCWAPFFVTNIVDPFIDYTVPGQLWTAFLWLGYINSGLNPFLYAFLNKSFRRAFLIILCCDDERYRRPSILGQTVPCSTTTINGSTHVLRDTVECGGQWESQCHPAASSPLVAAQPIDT

In the case of `COc1cc(N)nc2[nH]c(-c3ccc(F)cc3)c(-c3ccncc3)c12`, the 50% inhibitory concentration (IC50) result in experiment [1] (cho-k1), in experiment [2], in experiment [3], in experiment [4], in experiment [5] and in experiment [6] was “Not Active” each time. Also, the half-maximal inhibitory concentration (IC50) entry in experiment [7] (hek293) is on record as “Not Active”.
For `CNS(=O)(=O)Cc1ccc2[nH]cc(CCN(C)C)c2c1`, the IC50 result in experiment [1] (cho-k1), in experiment [2], in experiment [3], in experiment [4], in experiment [5] and in experiment [6] was “Not Active” in each case. For the same compound, the IC50 result in experiment [7] (hek293) is recorded as “Not Active”.
As to `CCCc1nn(C)c2c(=O)[nH]c(-c3cc(S(=O)(=O)N4CCN(C)CC4)ccc3OCC)nc12`, the IC50 result in experiment [1] (cho-k1), in experiment [2], in experiment [3], in experiment [4], in experiment [5] and in experiment [6] was “Not Active” in each case. Moreover, the IC50 result in experiment [7] (hek293) was “Not Active”.
Consider `COc1ccc(/C=C/C(=O)Nc2ccccc2C(=O)O)cc1OC`, for which the IC50 entry in experiment [1] (cho-k1), in experiment [2], in experiment [3], in experiment [4], in experiment [5] and in experiment [6] was “Not Active” throughout. In experiment [7] (hek293), the 50% inhibitory concentration (IC50) result is “Not Active”.
Regarding `CCOC(N)=O`, the IC50 result in experiment [1] (cho-k1), in experiment [2], in experiment [3], in experiment [4], in experiment [5] and in experiment [6] was “Not Active” in each case. The half-inhibitory concentration (IC50) result in experiment [7] (hek293) was “Not Active”.
In the case of `CC(=O)Nc1nnc(S(N)(=O)=O)s1` [ACETAZOLAMIDE], the IC50 result in experiment [1] (cho-k1), in experiment [2], in experiment [3], in experiment [4], in experiment [5] and in experiment [6] was “Not Active” in each case. Moreover, in experiment [7] (hek293), the IC50 entry is listed as “Not Active”.
As for `O=c1[nH]c2ccccc2n1CCCN1CCC(n2c(=O)[nH]c3cc(Cl)ccc32)CC1` [DOMPERIDONE], the half-maximal inhibitory concentration (IC50) entry in experiment [1] (cho-k1), in experiment [2], in experiment [3], in experiment [4], in experiment [5] and in experiment [6] was “Not Active” each time. Besides, the half-inhibitory concentration (IC50) in experiment [7] (read-out: IC50) was 1.06 µM. Moreover, in experiment [7], the Ki is 0.524 µM.
For the compound `CC1=C(CC(=O)O)c2cc(F)ccc2/C1=C\c1ccc(S(C)(=O)=O)cc1` [EXISULIND], the 50% inhibitory concentration (IC50) result in experiment [1] (cho-k1), in experiment [2], in experiment [3], in experiment [4], in experiment [5] and in experiment [6] was “Not Active” throughout. Further, the IC50 entry in experiment [7] (hek293) was “Not Active”.
`CC(C)OC(=O)C(C)(C)Oc1ccc(C(=O)c2ccc(Cl)cc2)cc1` [FENOFIBRATE]: the IC50 result in experiment [1] (cho-k1), in experiment [2], in experiment [3], in experiment [4], in experiment [6] and in experiment [7] (hek293) was “Not Active” throughout. Moreover, the Ki entry in experiment [5] is on record as “Not Active”.
Turning to `OCCN1CCN(CCCN2c3ccccc3Sc3ccc(C(F)(F)F)cc32)CC1` [FLUPHENAZINE], the IC50 in experiment [1] (read-out: IC50) is 3.47 µM; in experiment [2], “Not Active”; in experiment [3], “Not Active”; in experiment [4], “Not Active”; in experiment [5], “Not Active”; in experiment [6] it was “Not Active”. Moreover, the half-inhibitory concentration (IC50) in experiment [7] (read-out: IC50) was found to be 0.033 µM. For the same compound, the Ki in experiment [1] (read-out: Ki) is 0.484 µM; in experiment [7], 0.016 µM.
Regarding `CN1C2CCCC1CC(NC(=O)c1nn(C)c3ccccc13)C2` (stereo not drawn) [GRANISETRON], the 50% inhibitory concentration (IC50) result in experiment [1] (cho-k1), in experiment [2], in experiment [3], in experiment [4], in experiment [5] and in experiment [6] was “Not Active” each time. The half-maximal inhibitory concentration (IC50) result in experiment [7] (hek293) is “Not Active”.
For the compound `Nc1nc2c(c(=O)[nH]1)N(C=O)C(CNc1ccc(C(=O)N[C@@H](CCC(=O)O)C(=O)O)cc1)CN2` (stereo partly drawn) [LEUCOVORIN], the IC50 result in experiment [1] (cho-k1), in experiment [2], in experiment [3], in experiment [4], in experiment [5] and in experiment [6] was “Not Active” in each case. In addition, the half-inhibitory concentration (IC50) entry in experiment [7] (hek293) is listed as “Not Active”.
For `C[C@@H](O)[C@H]1C(=O)N2C(C(=O)O)=C(S[C@@H]3CN[C@H](C(=O)N(C)C)C3)[C@H](C)[C@H]12` [MEROPENEM], the IC50 result in experiment [1] (cho-k1), in experiment [2], in experiment [3], in experiment [4], in experiment [5] and in experiment [6] was “Not Active” each time. The IC50 result in experiment [7] (hek293) is reported as “Not Active”.
For the compound `CC[C@@H](CO)NC(=O)[C@@H]1C=C2c3cccc4c3c(cn4C)C[C@H]2N(C)C1` [METHYSERGIDE], the IC50 result in experiment [1] (cho-k1), in experiment [2], in experiment [3], in experiment [4], in experiment [5] and in experiment [6] was “Not Active” each time. The half-inhibitory concentration (IC50) entry in experiment [7] (hek293) is “Not Active”.
As for `CCN(CC)CC#CCOC(=O)C(O)(c1ccccc1)C1CCCCC1` (stereo not drawn) [OXYBUTYNIN], the half-maximal inhibitory concentration (IC50) entry in experiment [2], in experiment [3], in experiment [4], in experiment [5], in experiment [6] and in experiment [7] (hek293) was “Not Active” each time.
On to `O=P(O)(O)C(O)(Cc1cccnc1)P(=O)(O)O` [RISEDRONIC ACID], for which the IC50 result in experiment [1] (cho-k1), in experiment [2], in experiment [3], in experiment [4], in experiment [5] and in experiment [6] was “Not Active” in each case. For the same compound, the IC50 result in experiment [7] (hek293) is on record as “Not Active”.
For `CN(CCOc1ccc(CC2SC(=O)NC2=O)cc1)c1ccccn1` (stereo not drawn) [ROSIGLITAZONE], the half-inhibitory concentration (IC50) entry in experiment [1] (cho-k1), in experiment [2], in experiment [3], in experiment [4], in experiment [5] and in experiment [6] was “Not Active” each time. Also, in experiment [7] (hek293), the IC50 result is given as “Not Active”.
As to `C=C(C)[C@H]1Cc2c(ccc3c2O[C@@H]2COc4cc(OC)c(OC)cc4[C@@H]2C3=O)O1` [ROTENONE], the IC50 result in experiment [1] (cho-k1), in experiment [2], in experiment [3], in experiment [4], in experiment [5] and in experiment [6] was “Not Active” in each case. In addition, the IC50 entry in experiment [7] (hek293) was “Not Active”.
